# Assay results published in patent US20250205344A1, “2,4-DIOXOTETRAHYDROPYRIMIDINYL DERATIVES AS DEGRONS IN PROTACS” (GLAXOSMITHKLINE INTELLECTUAL PROPERTY DEVELOPMENT LIMITED, priority 2022, published 2025).
# Where a name gives a salt, the structure may show the parent alone.
# Biological target: T1, Androgen Receptor (Homo sapiens, UniProt P10275, T878A)
# T1 construct: the AR gene was modified, using CRISPR/Cas9 editing, so the expressed AR protein included an 11 amino acid HiBiT tag; endogenous in cells; host or cells: clonal LnCaP-derived line, AR gene edited by CRISPR/Cas9
# T1 sequence (P10275 whole entry T878A): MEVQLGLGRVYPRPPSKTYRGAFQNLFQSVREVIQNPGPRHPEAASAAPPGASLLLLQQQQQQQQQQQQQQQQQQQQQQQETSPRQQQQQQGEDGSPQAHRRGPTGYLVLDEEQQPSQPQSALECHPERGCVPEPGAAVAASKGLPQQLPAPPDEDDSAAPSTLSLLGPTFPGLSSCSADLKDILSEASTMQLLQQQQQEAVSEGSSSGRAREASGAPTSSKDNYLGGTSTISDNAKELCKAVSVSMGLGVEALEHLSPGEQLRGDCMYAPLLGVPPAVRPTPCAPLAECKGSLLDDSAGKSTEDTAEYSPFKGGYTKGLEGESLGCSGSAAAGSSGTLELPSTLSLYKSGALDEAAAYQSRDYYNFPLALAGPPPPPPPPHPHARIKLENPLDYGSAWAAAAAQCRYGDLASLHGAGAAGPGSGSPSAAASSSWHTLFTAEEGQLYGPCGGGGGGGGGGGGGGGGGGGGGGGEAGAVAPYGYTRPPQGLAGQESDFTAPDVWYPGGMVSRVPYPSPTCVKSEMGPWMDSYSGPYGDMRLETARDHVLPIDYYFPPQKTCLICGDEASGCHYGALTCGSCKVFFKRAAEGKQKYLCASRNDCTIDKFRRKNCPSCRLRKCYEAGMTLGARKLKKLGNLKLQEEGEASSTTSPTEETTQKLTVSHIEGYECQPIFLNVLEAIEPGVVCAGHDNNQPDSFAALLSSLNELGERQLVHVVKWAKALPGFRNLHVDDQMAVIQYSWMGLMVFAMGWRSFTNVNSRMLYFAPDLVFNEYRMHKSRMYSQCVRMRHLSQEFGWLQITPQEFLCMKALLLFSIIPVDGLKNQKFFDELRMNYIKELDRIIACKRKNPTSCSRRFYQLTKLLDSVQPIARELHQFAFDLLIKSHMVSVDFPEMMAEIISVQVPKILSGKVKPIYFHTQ
# T1 sequence (Q96SW2 whole entry partner): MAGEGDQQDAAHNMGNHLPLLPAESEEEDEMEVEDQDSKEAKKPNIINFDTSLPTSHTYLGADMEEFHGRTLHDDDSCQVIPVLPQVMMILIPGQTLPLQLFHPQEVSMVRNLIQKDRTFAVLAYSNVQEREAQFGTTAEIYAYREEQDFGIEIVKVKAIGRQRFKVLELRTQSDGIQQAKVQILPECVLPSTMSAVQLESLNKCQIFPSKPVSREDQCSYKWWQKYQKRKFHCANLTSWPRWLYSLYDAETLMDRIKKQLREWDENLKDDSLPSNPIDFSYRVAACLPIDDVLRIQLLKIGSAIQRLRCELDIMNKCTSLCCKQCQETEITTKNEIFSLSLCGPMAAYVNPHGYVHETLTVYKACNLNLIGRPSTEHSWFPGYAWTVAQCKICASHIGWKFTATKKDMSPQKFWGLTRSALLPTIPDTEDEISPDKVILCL
# T1 sequence (Q16531 whole entry partner): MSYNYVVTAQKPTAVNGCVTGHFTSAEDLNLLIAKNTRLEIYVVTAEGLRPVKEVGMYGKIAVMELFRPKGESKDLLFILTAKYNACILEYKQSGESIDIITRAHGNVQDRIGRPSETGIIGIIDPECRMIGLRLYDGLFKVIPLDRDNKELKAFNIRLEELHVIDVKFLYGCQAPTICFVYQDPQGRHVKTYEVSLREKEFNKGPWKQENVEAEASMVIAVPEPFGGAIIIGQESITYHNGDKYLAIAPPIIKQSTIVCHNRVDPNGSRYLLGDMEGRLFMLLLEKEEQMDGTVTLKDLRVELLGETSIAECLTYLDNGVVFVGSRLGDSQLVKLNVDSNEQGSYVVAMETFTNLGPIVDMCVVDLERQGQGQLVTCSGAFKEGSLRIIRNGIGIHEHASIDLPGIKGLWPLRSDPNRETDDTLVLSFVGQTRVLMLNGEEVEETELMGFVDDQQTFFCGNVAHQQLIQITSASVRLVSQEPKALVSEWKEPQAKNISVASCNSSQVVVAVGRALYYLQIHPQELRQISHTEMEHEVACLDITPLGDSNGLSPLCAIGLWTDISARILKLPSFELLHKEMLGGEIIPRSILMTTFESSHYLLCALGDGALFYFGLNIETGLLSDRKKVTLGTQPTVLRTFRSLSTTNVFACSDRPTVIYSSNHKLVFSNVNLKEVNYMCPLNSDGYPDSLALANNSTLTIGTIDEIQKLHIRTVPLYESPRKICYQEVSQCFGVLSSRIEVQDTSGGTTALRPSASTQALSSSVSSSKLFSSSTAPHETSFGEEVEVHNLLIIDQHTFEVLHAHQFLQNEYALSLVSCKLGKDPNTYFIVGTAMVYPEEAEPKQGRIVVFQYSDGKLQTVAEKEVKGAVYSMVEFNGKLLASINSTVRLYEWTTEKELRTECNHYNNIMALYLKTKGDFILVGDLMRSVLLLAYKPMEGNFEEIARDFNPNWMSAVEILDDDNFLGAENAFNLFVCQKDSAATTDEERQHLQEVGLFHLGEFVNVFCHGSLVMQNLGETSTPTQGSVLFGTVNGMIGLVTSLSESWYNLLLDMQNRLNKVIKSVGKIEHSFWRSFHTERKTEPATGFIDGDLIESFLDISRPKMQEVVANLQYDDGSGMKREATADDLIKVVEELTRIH
# Experiment: Androgen Receptor Degradation Assay (Nano-Glo HiBiT)
# Type: cell-based
# Conditions: HiBiT-tagged AR in human LnCaP cells, 18 h
# Method in brief: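 LnCaP cells with CRISPR-knocked-in N-terminal HiBiT-tagged AR (10,000/well) treated 18 h at 37 °C with PROTACs over 11 threefold concentrations; lytic HiBiT luminescence normalised to DMSO (0%) and cell-free (100%) controls. Relative DC50 = 4-parameter fit inflection; absolute DC50 = 50% degradation interpolation; Dmax = maximum observed degradation.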
row,Compound,mean relative pDC50
1,"C[C@@H]1CN(C(=O)Nc2ccc(N3CCC(CCN4CCC(n5ncc6c(N7CCC(=O)NC7=O)cncc65)CC4)CC3)nc2)[C@@H](C)CN1c1ccc(C#N)c(Cl)c1.O=CO [EAR133, (2S,5R)-4-(3-Chloro-4-cyanophenyl)-N-(6-(4-(2-(4-(4-(2,4-dioxotetrahydropyrimidin-1(2H)-yl)-1H-pyrazolo[3,4-c]pyridin-1-yl)piperidin-1-yl)ethyl)piperidin-1-yl)pyridin-3-yl)-2,5-dimethylpiperazine-1-carboxamide, formic acid salt]",5.94
2,"CC1(C)[C@H](NC(=O)c2ncc(N3CCC(CN4CCC(n5ncc6c(N7CCC(=O)NC7=O)nccc65)CC4)CC3)cn2)C(C)(C)[C@H]1Oc1ccc(C#N)c(Cl)c1 [EAR273, N-((1r,3r)-3-(3-Chloro-4-cyanophenoxy)-2,2,4,4-tetramethylcyclobutyl)-5-(4-((4-(4-(2,4-dioxotetrahydropyrimidin-1(2H)-yl)-1H-pyrazolo[4,3-c]pyridin-1-yl)piperidin-1-yl)methyl)piperidin-1-yl)pyrimidine-2-carboxamide]",5.67

# Same assay, conditions: LNCaP, 18 h, HiBiT-tagged AR in human LnCaP cells, read-out: mean asymptote max
row,Compound,Dmax
1,"N#Cc1ccc(O[C@H]2CC[C@H](NC(=O)c3ccc(OCCCCN4CCC(n5ccc6c(N7CCC(=O)NC7=O)cccc65)CC4)cn3)CC2)cc1Cl [EAR66, N-((1r,4r)-4-(3-chloro-4-cyanophenoxy)cyclohexyl)-5-(4-(4-(4-(2,4-dioxotetrahydropyrimidin-1(2H)-yl)-1H-indol-1-yl)piperidin-1-yl)butoxy)picolinamide]",≥ 50%
2,"C[C@@H]1CN(C(=O)Nc2ccc(N3CCC(CCN4CCC(n5ncc6c(N7CCC(=O)NC7=O)cncc65)CC4)CC3)nc2)[C@@H](C)CN1c1ccc(C#N)c(Cl)c1.O=CO [EAR133, (2S,5R)-4-(3-Chloro-4-cyanophenyl)-N-(6-(4-(2-(4-(4-(2,4-dioxotetrahydropyrimidin-1(2H)-yl)-1H-pyrazolo[3,4-c]pyridin-1-yl)piperidin-1-yl)ethyl)piperidin-1-yl)pyridin-3-yl)-2,5-dimethylpiperazine-1-carboxamide, formic acid salt]",≥ 50%
3,"CN(CCCCCN1CCC(n2ncc3c(N4CCC(=O)NC4=O)cccc32)CC1)c1ccc(C(=O)N[C@H]2CC[C@H](Oc3ccc(C#N)c(Cl)c3)CC2)nn1 [EAR220, N-((1r,4r)-4-(3-chloro-4-cyanophenoxy)cyclohexyl)-6-((5-(4-(4-(2,4-dioxotetrahydropyrimidin-1(2H)-yl)-1H-indazol-1-yl)piperidin-1-yl)pentyl)(methyl)amino)pyridazine-3-carboxamide]",≥ 50%
4,"N#Cc1ccc(O[C@H]2CC[C@H](NC(=O)c3cnc(N4CCC(CN5CCC(n6ncc7c(N8CCC(=O)NC8=O)cncc76)CC5)CC4)nc3)CC2)cc1Cl [AR216, N-((1r,4r)-4-(3-chloro-4-cyanophenoxy)cyclohexyl)-2-(4-((4-(4-(2,4-dioxotetrahydropyrimidin-1(2H)-yl)-1H-pyrazolo[3,4-c]pyridin-1-yl)piperidin-1-yl)methyl)piperidin-1-yl)pyrimidine-5-carboxamide]",≥ 50%
5,"CC(C)n1ccc2c(N3CCC(=O)NC3=O)cc(C(=O)N3CCN(CC4CCN(c5ncc(NC(=O)N6C[C@H](C)N(c7ccc(C#N)c(Cl)c7)C[C@H]6C)cn5)CC4)CC3)cc21 [EAR107, (2R,5S)-4-(3-Chloro-4-cyanophenyl)-N-(2-(4-((4-(4-(2,4-dioxotetrahydropyrimidin-1(2H)-yl)-1-isopropyl-1H-indole-6-carbonyl)piperazin-1-yl)methyl)piperidin-1-yl)pyrimidin-5-yl)-2,5-dimethylpiperazine-1-carboxamide]",≥ 50%
6,"N#Cc1ccc(O[C@H]2CC[C@H](NC(=O)c3cnc(N4CCC(C(=O)N5CCC(n6ccc7c(N8CCC(=O)NC8=O)cccc76)CC5)CC4)nc3)CC2)cc1C(F)(F)F [EAR68, N-((1r,4r)-4-(4-Cyano-3-(trifluoromethyl)phenoxy)cyclohexyl)-2-(4-(4-(4-(2,4-dioxotetrahydropyrimidin-1(2H)-yl)-1H-indol-1-yl)piperidine-1-carbonyl)piperidin-1-yl)pyrimidine-5-carboxamide]",≥ 50%
7,"CC1(C)[C@H](NC(=O)c2ncc(N3CCC(CN4CCC(n5ncc6c(N7CCC(=O)NC7=O)nccc65)CC4)CC3)cn2)C(C)(C)[C@H]1Oc1ccc(C#N)c(Cl)c1 [EAR273, N-((1r,3r)-3-(3-Chloro-4-cyanophenoxy)-2,2,4,4-tetramethylcyclobutyl)-5-(4-((4-(4-(2,4-dioxotetrahydropyrimidin-1(2H)-yl)-1H-pyrazolo[4,3-c]pyridin-1-yl)piperidin-1-yl)methyl)piperidin-1-yl)pyrimidine-2-carboxamide]",≥ 50%
8,"CN(c1ccc(C#N)c(Cl)c1)[C@H]1CC[C@H](NC(=O)c2ccc(N3CCC(CN4CCC(n5ccc6c(N7CCC(=O)NC7=O)cccc65)CC4)CC3)nn2)CC1 [EAR157, N-((1r,4r)-4-((3-Chloro-4-cyanophenyl)(methyl)amino)cyclohexyl)-6-(4-((4-(4-(2,4-dioxotetrahydropyrimidin-1(2H)-yl)-1H-indol-1-yl)piperidin-1-yl)methyl)piperidin-1-yl)pyridazine-3-carboxamide]",≥ 50%

# The next lines start with the values.
row,Dmax,Compound
1,≥ 50%,"N#Cc1ccc(O[C@H]2CC[C@H](NC(=O)c3ccc(N4CCC(CN5CCC(n6ccc7c(N8CCC(=O)NC8=O)cncc76)CC5)CC4)nn3)CC2)cc1Cl [EAR48, N-((1r,4r)-4-(3-Chloro-4-cyanophenoxy)cyclohexyl)-6-(4-((4-(4-(2,4-dioxotetrahydropyrimidin-1(2H)-yl)-1H-pyrrolo[2,3-c]pyridin-1-yl)piperidin-1-yl)methyl)piperidin-1-yl)pyridazine-3-carboxamide hydrochloride]"
2,≥ 50%,"N#Cc1ccc(O[C@H]2CC[C@H](NC(=O)c3ccc(N4CCC(CN5CCC(F)(Cn6ccc7c(N8CCC(=O)NC8=O)cccc76)CC5)CC4)nn3)CC2)cc1Cl [EAR168, N-((1r,4r)-4-(3-Chloro-4-cyanophenoxy)cyclohexyl)-6-(4-((4-((4-(2,4-dioxotetrahydropyrimidin-1(2H)-yl)-1H-indol-1-yl)methyl)-4-fluoropiperidin-1-yl)methyl)piperidin-1-yl)pyridazine-3-carboxamide]"
3,≥ 50%,"N#Cc1ccc(O[C@H]2CC[C@H](NC(=O)c3ccc(N4CCC(CN5CC[C@@H](n6ccc7c(N8CCC(=O)NC8=O)cccc76)[C@@H](F)C5)CC4)nn3)CC2)cc1Cl [EAR155, N-((1r,4r)-4-(3-Chloro-4-cyanophenoxy)cyclohexyl)-6-(4-(((3S,4R)-4-(4-(2,4-dioxotetrahydropyrimidin-1(2H)-yl)-1H-indol-1-yl)-3-fluoropiperidin-1-yl)methyl)piperidin-1-yl)pyridazine-3-carboxamide, hydrochloride]"
4,≥ 50%,"N#Cc1ccc(O[C@H]2CC[C@H](NC(=O)c3ccc(N4CC5CCC(C4)C5CN4CCC(n5ncc6c(N7CCC(=O)NC7=O)cccc65)CC4)nn3)CC2)cc1Cl (some centres unmarked) [EAR226, N-((1r,4r)-4-(3-chloro-4-cyanophenoxy)cyclohexyl)-6-(8-((4-(4-(2,4-dioxotetrahydropyrimidin-1(2H)-yl)-1H-indazol-1-yl)piperidin-1-yl)methyl)-3-azabicyclo[3.2.1]octan-3-yl)pyridazine-3-carboxamide]"
5,≥ 50%,"N#Cc1ccc(O[C@H]2CC[C@H](NC(=O)c3ccc(N4CCC[C@H](CN5CCC(n6ncc7c(N8CCC(=O)NC8=O)cccc76)CC5)C4)nn3)CC2)cc1Cl (single isomer, unassigned) [EAR136]"
6,≥ 50%,"CC1CN(c2ccc(C(=O)N[C@H]3CC[C@H](Oc4ccc(C#N)c(Cl)c4)CC3)nn2)CCC1CN1CCC(n2ncc3c(N4CCC(=O)NC4=O)cccc32)CC1 (some centres unmarked) [EAR234, N-((1r,4r)-4-(3-chloro-4-cyanophenoxy)cyclohexyl)-6-(4-((4-(4-(2,4-dioxotetrahydropyrimidin-1(2H)-yl)-1H-indazol-1-yl)piperidin-1-yl)methyl)-3-methylpiperidin-1-yl)pyridazine-3-carboxamide]"
7,≥ 50%,"N#Cc1ccc(O[C@H]2CC[C@H](NC(=O)c3ccc(N4CCC(CN5CCC(n6ccc7c(N8CCC(=O)NC8=O)cccc76)CC5)CC4)nn3)CC2)cc1Cl [EAR23, N-((1r,4r)-4-(3-Chloro-4-cyanophenoxy)cyclohexyl)-6-(4-((4-(4-(2,4-dioxotetrahydropyrimidin-1(2H)-yl)-1H-indol-1-yl)piperidin-1-yl)methyl)piperidin-1-yl)pyridazine-3-carboxamide]"
